From US10059713B2 (Takeda Pharmaceutical Company Limited, priority 2014, dated 2018)

The compounds below were run against human GPR43 (Homo sapiens (Human), UniProt O15552) (assay: Ca-Flux functional assay: determination of agonist/positive allosteric modulator (PAM) activity). Conditions: CHO-K1 Gα16 cells stably expressing human GPR43; compound added with EC20 sodium acetate; intracellular Ca2+ by FLIPR; does not distinguish agonist from PAM.
Type: cell-based
Outline: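 Agonist or PAM activity read as intracellular Ca2+ rise by FLIPR after adding compound plus EC20 acetate, acetate EC20 set from a prior curve. Cells: CHO-K1 Gα16 with stable human GPR43. EC50 from ten-point half-log curves starting 10 μM.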

Chain of human GPR43 (O15552 whole entry): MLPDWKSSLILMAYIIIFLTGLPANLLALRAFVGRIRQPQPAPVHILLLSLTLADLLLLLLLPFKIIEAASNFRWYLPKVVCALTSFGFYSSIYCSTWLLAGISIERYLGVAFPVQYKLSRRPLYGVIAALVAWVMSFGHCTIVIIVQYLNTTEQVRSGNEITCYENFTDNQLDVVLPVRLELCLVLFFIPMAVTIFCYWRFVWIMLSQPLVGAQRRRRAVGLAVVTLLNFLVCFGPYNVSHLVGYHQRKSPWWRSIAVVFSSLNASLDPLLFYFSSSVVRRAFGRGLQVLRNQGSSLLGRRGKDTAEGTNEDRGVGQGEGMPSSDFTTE

Row | SMILES | EC50
1 | CSc1nc(N2CCOC(C)C2)c2[nH]c(N)c(S(=O)(=O)c3ccccc3F)c2n1 (stereo not shown) [Example 269, 7-(2-fluorobenzenesulfonyl)-4-(2-methylmorpholin-4-yl)-2-(methylsulfanyl)-5H-pyrrolo[3,2-d]pyrimidin-6-amine] | 9 nM
2 | Cc1nc(OC(C)C)c2[nH]c(N)c(S(=O)(=O)c3ccccc3F)c2n1 [Example 272, 7-(2-fluorobenzenesulfonyl)-2-methyl-4-(propan-2-yloxy)-5H-pyrrolo[3,2-d]pyrimidin-6-amine] | 34 nM
3 | Cc1nc(OC(C)C(F)(F)F)c2[nH]c(N)c(S(=O)(=O)c3ccccc3F)c2n1 (stereo not shown) [Example 274, 7-(2-fluorobenzenesulfonyl)-2-methyl-4-[(1,1,1-trifluoropropan-2-yl)oxy]-5H-pyrrolo[3,2-d]pyrimidin-6-amine] | 8 nM
4 | Cc1nc(N2CCO[C@H](C)[C@H]2C)c2[nH]c(N)c(S(=O)(=O)c3ccccc3F)c2n1 [Example 276, 4-[(RR,SS)-2,3-dimethylmorpholin-4-yl]-7-(2-fluorobenzenesulfonyl)-2-methyl-5H-pyrrolo[3,2-d]pyrimidin-6-amine] | 16 nM
5 | Cc1nc(N2CCOC(C)(C)C2)c2[nH]c(N)c(S(=O)(=O)c3ccc(F)cc3F)c2n1 [Example 278, 7-(2,4-difluorobenzenesulfonyl)-4-(2,2-dimethylmorpholin-4-yl)-2-methyl-5H-pyrrolo[3,2-d]pyrimidin-6-amine] | 6 nM
6 | Cc1nc(N2CCOC(C)(C)C2)c2[nH]c(N)c(S(=O)(=O)c3cccc(F)c3F)c2n1 [Example 280, 7-(2,3-difluorobenzenesulfonyl)-4-(2,2-dimethylmorpholin-4-yl)-2-methyl-5H-pyrrolo[3,2-d]pyrimidin-6-amine] | 3 nM
7 | Cc1nc(N2CCO[C@H](C(F)(F)F)C2)c2[nH]c(N)c(S(=O)(=O)c3ccccc3F)c2n1 [Example 281, 7-(2-fluorobenzenesulfonyl)-2-methyl-4-[(2S)-2-(trifluoromethyl)morpholin-4-yl]-5H-pyrrolo[3,2-d]pyrimidin-6-amine] | 1 nM
8 | Cc1nc(N2CCO[C@H](C(F)(F)F)C2)c2[nH]c(N)c(S(=O)(=O)c3ccc(F)cc3F)c2n1 [Example 283, 7-(2,4-difluorobenzenesulfonyl)-2-methyl-4-[(2S)-2-(trifluoromethyl)morpholin-4-yl]-5H-pyrrolo[3,2-d]pyrimidin-6-amine] | 1 nM
9 | Cc1nc(N2CCO[C@H](C(F)(F)F)C2)c2[nH]c(N)c(S(=O)(=O)c3ccc(Cl)cc3F)c2n1 [Example 284, 7-(4-chloro-2-fluorobenzenesulfonyl)-2-methyl-4-[(2S)-2-(trifluoromethyl)morpholin-4-yl]-5H-pyrrolo[3,2-d]pyrimidin-6-amine] | 2 nM
10 | Cc1nc(N2CCO[C@H](C(F)(F)F)C2)c2[nH]c(N)c(S(=O)(=O)c3cccc(F)c3F)c2n1 [Example 285, 7-(2,3-difluorobenzenesulfonyl)-2-methyl-4-[(2S)-2-(trifluoromethyl)morpholin-4-yl]-5H-pyrrolo[3,2-d]pyrimidin-6-amine] | 2 nM
11 | Cc1nc(N2CCO[C@@H](C(F)(F)F)C2)c2[nH]c(N)c(S(=O)(=O)c3cccc(F)c3F)c2n1 [Example 286, 7-(2,3-difluorobenzenesulfonyl)-2-methyl-4-[(2R)-2-(trifluoromethyl)morpholin-4-yl]-5H-pyrrolo[3,2-d]pyrimidin-6-amine] | 3 nM
12 | Cc1nc(N2CCOC(C)(C)C2)c2[nH]c(N)c(S(=O)(=O)c3cc(F)ccc3F)c2n1 [Example 288, 7-(2,5-difluorobenzenesulfonyl)-4-(2,2-dimethylmorpholin-4-yl)-2-methyl-5H-pyrrolo[3,2-d]pyrimidin-6-amine] | 8 nM
13 | Cc1nc(N2CCO[C@@H](C(F)(F)F)C2)c2[nH]c(N)c(S(=O)(=O)c3cc(F)ccc3F)c2n1 [Example 291] | 3 nM
14 | Cc1nc(N2CCO[C@H](C(F)(F)F)C2)c2[nH]c(N)c(S(=O)(=O)c3cc(F)ccc3F)c2n1 [Example 292] | 3 nM
15 | Cc1nc(N2CCO[C@H](C(F)(F)F)C2)c2[nH]c(N)c(S(=O)(=O)c3c(F)cccc3F)c2n1 [Example 294, 7-(2,6-Difluorobenzenesulfonyl)-2-methyl-4-[(2S)-2-(trifluoromethyl)morpholin-4-yl]-5H-pyrrolo[3,2-d]pyrimidin-6-amine] | 4 nM

Further compounds by falling EC50, results first:

Row | EC50 | SMILES
16 | 63 nM | Cc1nc(OC2CCOC(C)(C)C2)c2[nH]c(N)c(S(=O)(=O)c3ccccc3F)c2n1 (stereo not shown) [Example 273, -[(2,2-dimethyloxan-4-yl)oxy]-7-(2-fluorobenzenesulfonyl)-2-methyl-5H-pyrrolo[3,2-d]pyrimidin-6-amine]
17 | 40 nM | CC1(C)CN(c2ccnc3c(S(=O)(=O)c4ccccc4)c(N)[nH]c23)CCO1 [Example 277, 3-(benzenesulfonyl)-7-(2,2-dimethylmorpholin-4-yl)-H-pyrrolo[3,2-b]pyridin-2-amine]
18 | 17 nM | CC1CN(c2nc(N(C)C)nc3c(S(=O)(=O)c4ccccc4F)c(N)[nH]c23)CCO1 (stereo not shown) [Example 270, 7-(2-fluorobenzenesulfonyl)-2-N,2-N-dimethyl-4-(2-methylmorpholin-4-yl)-5H-pyrrolo[3,2-d]pyrimidine-2,6-diamine]
19 | 9 nM | Cc1nc(N2CCOC(C)(C)C2)c2[nH]c(N)c(S(=O)(=O)c3c(F)cccc3F)c2n1 [Example 287, 7-(2,6-difluorobenzenesulfonyl)-4-(2,2-dimethylmorpholin-4-yl)-2-methyl-5H-pyrrolo[3,2-d]pyrimidin-6-amine]
20 | 8 nM | COc1nc(N2CCOC(C)C2)c2[nH]c(N)c(S(=O)(=O)c3ccccc3F)c2n1 (stereo not shown) [Example 271, 7-(2-fluorobenzenesulfonyl)-2-methoxy-4-(2-methylmorpholin-4-yl)-5H-pyrrolo[3,2-d]pyrimidin-6-amine]
21 | 4 nM | Cc1nc(N2CCOC(C)(C)C2)c2[nH]c(N)c(S(=O)(=O)c3ccc(Cl)cc3F)c2n1 [Example 279, 7-(4-chloro-2-fluorobenzenesulfonyl)-4-(2,2-dimethylmorpholin-4-yl)-2-methyl-5H-pyrrolo[3,2-d]pyrimidin-6-amine]
22 | 3 nM | Cc1nc(N2CCO[C@@H](C(F)(F)F)C2)c2[nH]c(N)c(S(=O)(=O)c3c(F)cccc3F)c2n1 [Example 295, 7-(2,6-difluorobenzenesulfonyl)-2-methyl-4-[(2R)-2-(trifluoromethyl)morpholin-4-yl]-5H-pyrrolo[3,2-d]pyrimidin-6-amine]
23 | 2 nM | COc1ccc(S(=O)(=O)c2c(N)[nH]c3c(N4CCO[C@@H](C(F)(F)F)C4)nc(C)nc23)c(F)c1 [Example 293, 7-(2-fluoro-4-methoxybenzenesulfonyl)-2-methyl-4-[(2R)-2-(trifluoromethyl)morpholin-4-yl]-5H-pyrrolo[3,2-d]pyrimidin-6-amine]
24 | 1 nM | COc1ccc(S(=O)(=O)c2c(N)[nH]c3c(N4CCO[C@H](C(F)(F)F)C4)nc(C)nc23)c(F)c1 [Example 282, 7-(2-fluoro-4-methoxybenzenesulfonyl)-2-methyl-4-[(2S)-2-(trifluoromethyl)morpholin-4-yl]-5H-pyrrolo[3,2-d]pyrimidin-6-amine]
25 | 1 nM | Cc1nc(N2CCO[C@@H](C(F)(F)F)C2)c2[nH]c(N)c(S(=O)(=O)c3ccccc3F)c2n1 [Example 289, 7-(2-fluorobenzenesulfonyl)-2-methyl-4-[(2R)-2-(trifluoromethyl)morpholin-4-yl]-5H-pyrrolo[3,2-d]pyrimidin-6-amine]
